Test results published in patent US10206902B2, “Mono- or di-substituted indoles as dengue viral replication inhibitors” (priority 2014, dated 2019).

What was measured:
[1] = tested on: DENV-2 16681 strain; assay: DENV-2 antiviral assay (eGFP-labelled virus in Vero cells); assay type: cell-based, Dengue virus; conditions: DENV-2 16681 eGFP, MOI 0.5, 3 days
Method: The antiviral activity of all the compounds of the invention was tested against DENV-2 16681 strain which was labeled with enhanced green fluorescent protein (eGPF). The culture medium consists of minimal essential medium supplemented with 2% of heat-inactivated fetal calf serum, 0.04% gentamycin (50 mg/mL) and 2 mM of L-glutamine. Vero cells, obtained from ECACC, were suspended in culture medium and 25 μL was added to 384-well plates (2500 cells/well), which already contain the antiviral compounds. Typically, these plates contain a 4-fold serial dilution of 9 dilution steps of the test compound at 200 times the final concentration in 100% DMSO (200 nL). In addition, each compound concentration is tested in quadruplicate (final concentration range: 25 μM-0.00038 μM). Finally, each plate contains wells which are assigned as virus controls (containing cells and virus in the absence of compound), cell controls (containing cells in the absence of virus and compound) and medium controls (containing medium in the absence of cells, virus and compounds). To the wells assigned as medium control, 25 μL of culture medium was added instead of Vero cells. Once the cells were added to the plates, the plates were incubated for 30 minutes at room temperature to allow the cells to distribute evenly within the wells. Next, the plates were incubated in a fully humidified incubator (37° C., 5% CO2) until the next day. Then, DENV-2 strain 16681, labeled with eGFP, was added at a multiplicity of infection (MOI) of 0.5. Therefore, 15 μL of virus suspension was added to all the wells containing test compound and to the wells assigned as virus control. In parallel, 15 μL of culture medium was added to the medium and cell controls. Next, the plates were incubated for 3 days in a fully humidified incubator (37° C., 5% CO2). At the day of the read out, the eGFP fluorescence was measured using an automated fluorescence microscope at 488 nm (blue laser). Using an in-house LIMS system, inhibition dose response curves for each compound were calculated and the half maximal effective concentration (EC50) was determined. Therefore, the percent inhibition (I) for every test concentration is calculated using the following formula: I=100*(ST−SCC)/(SVC−SCC); ST, SCC and SVC are the amount of eGFP signal in the test compound, cell control and virus control wells, respectively. The EC50 represents the concentration of a compound at which the virus replication is inhibited with 50%, as measured by a 50% reduction of the eGFP fluorescent intensity compared to the virus control. The EC50 is calculated using linear interpolation (Table 1).

[2] = tested on: Vero cells; assay: in vitro; assay type: cell-based; conditions: African green monkey
Method: (§1) In parallel, the toxicity of the compounds was assessed on the same plates. Once the read-out for the eGFP signal was done, 10 μL of resazurin, a cell viability stain, was added to all wells of the 384-well plates. The resazurin assay is based on the reduction of the blue resazurin by NADH, produced by the cells, into the highly fluorescent product, resorufin. The formation of pink fluorescent resorufin is directly related to the number of viable cells in the well. The plates were incubated for an additional 5 hours in a fully humidified incubator (37° C., 5% CO2). Next, the plates were measured on an Infinite reader (Tecan) using an excitation wavelength of 530 nm. The half maximal cytotoxic concentration (CO50) was also determined, defined as the concentration required to reduce the resazurin conversion by 50% compared to that of the cell control wells (Table 1). Finally, the selectivity index (SI) was determined for the compounds, which was calculated as followed: SI=CC50/EC50.

[3] = in vitro; assay type: cell-based; conditions: African green monkey, CC50
Method: as §1

Structure (SMILES) | EC50 [1] [µM] | CC50 [2] [µM] | EC50 ([1]; Dengue virus, DENV2, Vero, 72 h) [µM] | CC50 [3] [µM] | melting point [°C]
COc1cc(NC(C(=O)c2c[nH]c3cc(OC)c(C)cc23)c2ccc(F)cc2OC)cc(OCCO)c1 (single isomer, unassigned) [Compound 6B, 2-(4-fluoro-2-methoxyphenyl)-2-((3-(2-hydroxyethoxy)-5-methoxyphenyl)amino)-1-(6-methoxy-5-methyl-1H-indol-3-yl)ethanone] | 0.29 | 9.6 |  |  | 
COc1cc(NC(C(=O)c2c[nH]c3c(C)cc(F)cc23)c2ccc(F)cc2OC)cc(OCCO)c1 (racemic) [Compound 9, 2-(4-fluoro-2-methoxyphenyl)-1-(5-fluoro-7-methyl-1H-indol-3-yl)-2-((3-(2-hydroxyethoxy)-5-methoxyphenyl)amino)ethanone] |  |  | 0.0094 | 7.5 | 179
